Several values for one entry are separate records, joined by “and”; a condition that tells them apart may be missing. Equal entries are not always repeated.
How the values were obtained:
[1] = tested on: MCF-7 cells; assay: Cellular 59Fe uptake from 59Fe2-transferrin; format: cell-based, human; design: key to Uptake 59Fe, Ave / Uptake 59Fe: % of internalized 59Fe in untreated control cells
Description: Human transferrin (Sigma) was labeled with ^56Fe or ^59Fe (PerkinElmer, Massachusetts, USA) to produce ^56Fe2-transferrin or ^59Fe2-transferrin (^59Fe2-Tf), respectively, with a final specific activity of 500 pCi/pmol Fe, as previously described. Unbound ^59Fe was removed by exhaustive vacuum dialysis against a large excess of 0.15 M NaCl buffered to pH 7.4 with 1.4% NaHCO3 by standard methods.
The ability of the chelators to prevent cellular ^59Fe uptake from ^59Fe2-transferrin was examined using standard techniques. In brief, confluent MCF-7 cells in 6-well plates were incubated with 0.75 μM ^59Fe2-Tf for 3 h/37°C in the presence of Bp4eT or its metabolites (25 μM). The cells were then washed four times with ice-cold PBS and the level of internalized ^59Fe was determined by incubating the cell monolayer for 30 min/4°C with the general protease, Pronase (1 mg/mL; Sigma-Aldrich). The cells were then removed from the monolayer with a plastic spatula on ice and centrifuged for 1 min/12,000 x g/4°C. The supernatant represents membrane-bound, Pronase-sensitive ^59Fe that was released by the protease, while the Pronase-insensitive fraction represents internalized ^59Fe. The amount of internalized ^59Fe was expressed as a percentage of ^59Fe internalized by control (untreated) cells.

[2] = Ascorbate oxidation assay (redox activity of iron complexes); format: biochemical;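 as to %Fe 30min (ascorbate oxidation, Fe 100%), průměr: IBE 3 means excess free chelator over iron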;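 as to %Fe 30min (ascorbate oxidation, Fe 100%): IBE 3 means excess free chelator over iron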;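 as to %Fe 30min: ascorbate oxidation as % of the Fe control (Fe 100%): IBE 0.1 means iron-binding equivalents with iron in excess over chelator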;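 as to Change of absorbance, odečet 0 (time 0 subtracted), čas 10, průměr: IBE 3 means excess free chelator over 10 µM FeCl3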;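 as to Change of absorbance, odečet 0 (time 0 subtracted), čas 10: IBE 3 means excess free chelator over 10 µM FeCl3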
Experimental: The ascorbate oxidation assay was used to assess the redox activity of the iron complexes of the chelators using an established protocol. In brief, 100 μM ascorbic acid was prepared immediately prior to the experiment and incubated either alone or in the presence of 10 μM FeCl3 in a 50-fold molar excess (500 μM) of citrate and the chelators. Chelators were assayed at iron-binding equivalents (IBE) of 0.1 (excess of iron), 1 (fully coordinated iron—chelator complexes) and 3 (excess of free chelator). […] The decrease of absorbance between the two time points was calculated and expressed as a percentage of control without the chelator.

[3] = tested on: caspase 9; assay: Caspase activity, luminescent kit, caspase 9; format: cell-based, human; details: for kaspáza 9, raw signal / kaspáza 9, signal / viabilita: individual experiments by date; for kaspáza 9, raw signal, průměry / kaspáza 9, % kontroly / kaspáza 9, signal / viabilita, průměry: mean; for kaspáza 9, % kontroly / kaspáza 9, signal / viabilita / kaspáza 9, signal / viabilita, průměry: normalised to viability
Experimental: To assess the effect of the compounds on caspase activity, MCF-7 cells were incubated with 100 nM Bp4eT or its metabolites for 3, 24 or 72 h/37°C in 96-well plates, as described above. The cells were then lysed by adding 100 μL of cold lysis buffer (100 mM HEPES, 10 mM CHAPS, 10 mM D-L-dithiothreitol, pH 7.4) to 100 μL of medium in each well. Lysates were immediately frozen at -80°C. Thawed lysates were used to assess caspase activity using luminescent kits for caspases 3/7, 8 and 9 (Promega, Madison, WI, USA). The luminescence was measured using the Tecan Infinite 200M plate reader. Caspase activity in the experimental groups was corrected according to the cellular viability of each group and expressed as a percentage of activity of the untreated control (100%).

[4] = sheet IBE 1, time 10, replicates
[5] = sheet IBE 1, time 20, replicates
[6] = sheet IBE 1, time 30, replicates

## CCN=CNN=C(c1ccccc1)c1ccccn1 [Bp4eA, N ^3-ethyl-N ^1-[phenyl(pyridin-2-yl)methylene]formamidrazone]
[1]; 25 μM, 3 h/37°C, MCF-7, 0.75 μM 59Fe2-Tf
  Internalized 59Fe uptake, % of the control: comparable to the untreated control
[1]; average of all replicates, Control Ave = 100
  Uptake 59Fe, Ave: 93.4629
[1]; single replicate (three per date), Control Ave = 100
  Uptake 59Fe: 92.0297 and 96.1364 and 98.7564 and 74.0112 and 96.1871 and 80.6939 and 103.039 and 106.85
[2]; IBE 0.1, 30 min, mean (průměr)
  %Fe 30min: ascorbate oxidation as % of the Fe control (Fe 100%): 102.5%
[2]; IBE 0.1, time 10, mean (průměr)
  Change of absorbance after subtraction of time 0 (odečet 0): -0.03561
[2]; IBE 0.1, time 20, mean (průměr)
  Change of absorbance after subtraction of time 0 (odečet 0): -0.0674
[2]; IBE 0.1, time 30, mean (průměr)
  Change of absorbance after subtraction of time 0 (odečet 0): -0.09706
[2]; IBE 0.1, čas 0 (time 0), mean (průměr)
  Absorbance (ascorbate, λ = 265 nm): 0.8401
[2]; IBE 0.1, čas 10 (time 10), mean (průměr)
  Absorbance (ascorbate, λ = 265 nm): 0.8044
[2]; IBE 0.1, čas 20 (time 20), mean (průměr)
  Absorbance (ascorbate, λ = 265 nm): 0.7727
[2]; IBE 0.1, čas 30 (time 30), mean (průměr)
  Absorbance (ascorbate, λ = 265 nm): 0.743
[2]; sheet IBE 1, 30min, Fe 100%, mean
  %Fe 30min (ascorbate oxidation, Fe = 100%), průměr (mean): 106.5%
[2]; sheet IBE 1, 30min, Fe 100%, replicates
  %Fe 30min (ascorbate oxidation, Fe = 100%), single replicates: 113.3% and 104.9% and 102.6% and 110.5% and 113.6% and 110.3% and 106.1% and 101.1% and 95.68%
[2]; sheet IBE 1, time 0, mean of 9 readings
  raw reading at čas 0 (time 0), průměr (mean): 0.8163
[2]; sheet IBE 1, time 0, replicates of 2014-03-24 (two runs) and 2014-03-25
  raw reading at čas 0 (time 0), single replicates: 0.8356 and 0.8379 and 0.8058 and 0.8059 and 0.8041 and 0.8006 and 0.8152 and 0.8134 and 0.828
[2]; sheet IBE 1, time 10, mean
  odečet 0 (reading minus time 0 reading) at čas 10, průměr (mean): -0.03248
[2]; sheet IBE 1, time 10, mean of 9 readings
  raw reading at čas 10 (time 10), průměr (mean): 0.7838
[2]; [4]
  odečet 0 (reading minus time 0 reading) at čas 10, single replicates: -0.02971 and -0.02191 and -0.02781 and -0.03858 and -0.03648 and -0.03745 and -0.03205 and -0.03185
  raw reading at čas 10 (time 10), single replicates: 0.7761 and 0.784 and 0.7763 and 0.762 and 0.7787 and 0.7769 and 0.7906 and 0.8036 and 0.8061
[2]; sheet IBE 1, time 20, mean
  odečet 0 (reading minus time 0 reading) at čas 20, průměr (mean): -0.06498
[2]; sheet IBE 1, time 20, mean of 9 readings
  raw reading at čas 20 (time 20), průměr (mean): 0.7513
[2]; [5]
  odečet 0 (reading minus time 0 reading) at čas 20, single replicates: -0.0647 and -0.0595 and -0.0576 and -0.07087 and -0.07167 and -0.06987 and -0.06821 and -0.06221 and -0.06021
  raw reading at čas 20 (time 20), single replicates: 0.7411 and 0.7464 and 0.7465 and 0.7297 and 0.7435 and 0.7598 and 0.7734 and 0.7777
[2]; sheet IBE 1, time 30, mean
  odečet 0 (reading minus time 0 reading) at čas 30, průměr (mean): -0.09465
[2]; sheet IBE 1, time 30, mean of 9 readings
  raw reading at čas 30 (time 30), průměr (mean): 0.7216
[2]; [6]
  odečet 0 (reading minus time 0 reading) at čas 30, single replicates: -0.09786 and -0.09066 and -0.08866 and -0.09551 and -0.09811 and -0.09531 and -0.1001 and -0.09539 and -0.09029
  raw reading at čas 30 (time 30), single replicates: 0.7079 and 0.7152 and 0.7154 and 0.7051 and 0.7171 and 0.7181 and 0.7279 and 0.7402 and 0.7477
[2]; sheet IBE 3, 30min, Fe alone = 100%, mean (průměr) of the 9 replicates
  %Fe 30min (ascorbate oxidation, Fe 100%), průměr: 105.3%
[2]; sheet IBE 3, 30min, Fe alone = 100%, single replicates
  %Fe 30min (ascorbate oxidation, Fe 100%): 100.1% and 103.3% and 98.42% and 112.4% and 108.5% and 106.2% and 109.9% and 107% and 102%
[2]; sheet IBE 3, time 10 minus time 0, mean (průměr)
  Change of absorbance, odečet 0 (time 0 subtracted), čas 10, průměr: -0.03537
[2]; sheet IBE 3, time 10 minus time 0, single replicates
  Change of absorbance, odečet 0 (time 0 subtracted), čas 10: -0.03156 and -0.03676 and -0.03266 and -0.04073 and -0.03893 and -0.03883 and -0.03458 and -0.03388 and -0.03038
[2]; sheet IBE 3, time 20 minus time 0, mean (průměr)
  Change of absorbance, odečet 0 (time 0 subtracted), čas 20, průměr: -0.06757
[2]; sheet IBE 3, time 20 minus time 0, single replicates
  Change of absorbance, odečet 0 (time 0 subtracted), čas 20: -0.06509 and -0.07099 and -0.06549 and -0.07376 and -0.07016 and -0.07036 and -0.06559 and -0.06109
[2]; sheet IBE 3, time 30 minus time 0, mean (průměr)
  Change of absorbance, odečet 0 (time 0 subtracted), čas 30, průměr: -0.0973
[2]; sheet IBE 3, time 30 minus time 0, single replicates
  Change of absorbance, odečet 0 (time 0 subtracted), čas 30: -0.09296 and -0.09586 and -0.09136 and -0.1043 and -0.1007 and -0.0986 and -0.1006 and -0.09796 and -0.09336
[3]; 3 hodiny
  kaspáza 9, raw signal: 5948 and 2664.5 and 3083.5 and 2163.5
  kaspáza 9, raw signal, průměry: 3464.88
  kaspáza 9, % kontroly: 101.76 % kontroly
  kaspáza 9, signal / viabilita: 61.4437 and 27.5247 and 31.853 and 22.3493
  kaspáza 9, signal / viabilita, průměry: 35.7927
[3]; 24 hodin
  kaspáza 9, raw signal: 4444 and 2960 and 4885.5 and 3130
  kaspáza 9, raw signal, průměry: 3854.88
  kaspáza 9, % kontroly: 99.64 % kontroly
  kaspáza 9, signal / viabilita: 46.4885 and 30.9645 and 51.1071 and 32.7428
  kaspáza 9, signal / viabilita, průměry: 40.3257
[3]; 72 hodin
  kaspáza 9, raw signal: 22564 and 18032 and 23775.5 and 21453
  kaspáza 9, raw signal, průměry: 21456.1
  kaspáza 9, % kontroly: 106.51 % kontroly
  kaspáza 9, signal / viabilita: 242.519 and 193.809 and 255.541 and 230.578
  kaspáza 9, signal / viabilita, průměry: 230.612

From publication PMC4604124, “In Vitro Characterization of the Pharmacological Properties of the Anti-Cancer Chelator, Bp4eT, and Its Phase I Metabolites” (PLoS ONE, 2015)
